≈ marks a conversion by molar mass, not a printed value.
Experiments:
Bacillus subtilis 6633 = assay: MIC human bacteria (Table 1), serial dilution in nutrient agar; assay type: cell-based; conditions: nutrient agar with 5% chocolated horse blood
S. dublin S7 = assay: MIC veterinary bacteria (Table 2), serial dilution in agar; assay type: cell-based; conditions: Salmonella enterica, diagnostic sensitivity test agar
K. aerogenes A = assay: MIC human bacteria (Table 1), serial dilution in nutrient agar; assay type: cell-based; conditions: Klebsiella aerogenes, nutrient agar with 5% chocolated horse blood
Staph aureus W2827 = assay: as above; assay type: cell-based; conditions: Staphylococcus aureus, nutrient agar with 5% chocolated horse blood
[1] = tested on: Erysipelothrix rhusiopathiae NCTC 8163; assay: MIC veterinary bacteria (Table 2), serial dilution in agar; assay type: cell-based; conditions: NCTC8163; Erysipelothrix rhusiopathiae NCTC 8163; diagnostic sensitivity test agar; read-out: MIC
Past multocida PA1 = assay: as above; assay type: cell-based; conditions: diagnostic sensitivity test agar
P. mirabilis 889 = assay: MIC human bacteria (Table 1), serial dilution in nutrient agar; assay type: cell-based; conditions: Proteus mirabilis; P. mirabilis 889; nutrient agar with 5% chocolated horse blood; read-out: MIC
Strep dysgalaciae SPD1 = assay: MIC veterinary bacteria (Table 2), serial dilution in agar; assay type: cell-based; conditions: diagnostic sensitivity test agar
E. coli ESS = assay: MIC human bacteria (Table 1), serial dilution in nutrient agar; assay type: cell-based; conditions: Escherichia coli; E. coli ESS; nutrient agar with 5% chocolated horse blood; read-out: MIC
[2] = tested on: Staph aureus 152 (pen. sens); assay: MIC veterinary bacteria (Table 2), serial dilution in agar; assay type: cell-based; conditions: Staphylococcus aureus, diagnostic sensitivity test agar
Strep uberis SPU1 = assay: as above; assay type: cell-based; conditions: diagnostic sensitivity test agar
Strep faecalis I = assay: MIC human bacteria (Table 1), serial dilution in nutrient agar; assay type: cell-based; conditions: nutrient agar with 5% chocolated horse blood
Strep agalactiae SPA1 = assay: MIC veterinary bacteria (Table 2), serial dilution in agar; assay type: cell-based; conditions: diagnostic sensitivity test agar
Past multocida PA2 = assay: as above; assay type: cell-based; conditions: diagnostic sensitivity test agar
Strep pneumoniae CN33 = assay: MIC human bacteria (Table 1), serial dilution in nutrient agar; assay type: cell-based; conditions: nutrient agar with 5% chocolated horse blood
Strep pyogenes B 2788 = assay: as above; assay type: cell-based; conditions: nutrient agar with 5% chocolated horse blood
Strep pyogenes C 2761 = assay: as above; assay type: cell-based; conditions: nutrient agar with 5% chocolated horse blood
[3] = tested on: Haemophilus influenzae Wy21; assay: as above; assay type: cell-based; conditions: Haemophilus influenzae, WY21
Bord bronchiseptica B08 = assay: MIC veterinary bacteria (Table 2), serial dilution in agar; assay type: cell-based; conditions: diagnostic sensitivity test agar
B. subtilis ATCC 6633 = assay: as above; assay type: cell-based; conditions: diagnostic sensitivity test agar
[4] = tested on: Corynebacterium pyogenes CY1; assay: as above; assay type: cell-based; conditions: Trueperella pyogenes, diagnostic sensitivity test agar
M. suipneumoniae JF435 = assay: anti-mycoplasmal MIC, Friis broth solidified with agarose (Table 4); assay type: cell-based; conditions: Mesomycoplasma hyopneumoniae, JF435, 144 h
S. typhimurium S18 = assay: MIC veterinary bacteria (Table 2), serial dilution in agar; assay type: cell-based; conditions: Salmonella enterica, diagnostic sensitivity test agar
M. suipneumoniae Str. 11 = assay: anti-mycoplasmal MIC, Friis broth solidified with agarose (Table 4); assay type: cell-based; conditions: Mesomycoplasma hyopneumoniae, 144 h; M. suipneumoniae Str. 11; 6 days at 37° C.; read-out: MIC
Sarcina lutea 8340 = assay: MIC human bacteria (Table 1), serial dilution in nutrient agar; assay type: cell-based; conditions: nutrient agar with 5% chocolated horse blood
Staph aureus Russell = assay: as above; assay type: cell-based; conditions: Staphylococcus aureus, nutrient agar with 5% chocolated horse blood
E. coli E1 = assay: MIC veterinary bacteria (Table 2), serial dilution in agar; assay type: cell-based; conditions: Escherichia coli, diagnostic sensitivity test agar
E. coli NCTC 10418 [5] = assay: as above; assay type: cell-based; conditions: Escherichia coli, NCTC10418; E. coli NCTC 10418; diagnostic sensitivity test agar; read-out: MIC
[6] = Serum binding by ultrafiltration of porcine serum; assay type: in vitro ADME; conditions: pig, 8 mcg/ml, microbiological assay, read-out: % bound to pig serum (converted)
Procedure: Serum binding was assessed by ultrafiltration of porcine serum containing compounds at 8 mcg/ml, and through an Amicon CF50A ultrafiltration cone. Separation of ultrafiltrate was achieved by centrifugation. Unbound concentrations of compound were measured in the ultrafiltrate by microbiological assay (B. subtilis ATCC 6633) against standards prepared in saline.

Strep pyogenes A 64/848 = assay: MIC human bacteria (Table 1), serial dilution in nutrient agar; assay type: cell-based; conditions: nutrient agar with 5% chocolated horse blood
[7] = tested on: Staph aureus B4 (pen. resis); assay: MIC veterinary bacteria (Table 2), serial dilution in agar; assay type: cell-based; conditions: Staphylococcus aureus; Staph aureus B4 (pen. resis); diagnostic sensitivity test agar; read-out: MIC
[8] = tested on: Haemophilus influenzae Q1; assay: MIC human bacteria (Table 1), serial dilution in nutrient agar; assay type: cell-based; conditions: Haemophilus influenzae, Q1
E. coli NCTC 10418 [9] = assay: as above; assay type: cell-based; conditions: Escherichia coli, NCTC10418; E. coli NCTC 10418; nutrient agar with 5% chocolated horse blood; read-out: MIC
Ps. aeruginosa 10662 = assay: as above; assay type: cell-based; conditions: Pseudomonas aeruginosa, nutrient agar with 5% chocolated horse blood
Bord bronchiseptica B09 = assay: MIC veterinary bacteria (Table 2), serial dilution in agar; assay type: cell-based; conditions: diagnostic sensitivity test agar
Staph aureus Oxford [10] = assay: as above; assay type: cell-based; conditions: Staphylococcus aureus; Staph aureus Oxford; diagnostic sensitivity test agar; read-out: MIC
[11] = tested on: Neisseria catarrhalis 1502; assay: MIC human bacteria (Table 1), serial dilution in nutrient agar; assay type: cell-based; conditions: nutrient agar with 5% chocolated horse blood
M. suipneumoniae MS16 = assay: anti-mycoplasmal MIC, Friis broth solidified with agarose (Table 4); assay type: cell-based; conditions: Mesomycoplasma hyopneumoniae, 144 h; M. suipneumoniae MS16; 6 days at 37° C.; read-out: MIC
[12] = tested on: Pasteurella multocida 1633; assay: MIC human bacteria (Table 1), serial dilution in nutrient agar; assay type: cell-based; conditions: Pasteurella multocida, 1633
[13] = tested on: Strep suis (group D) SPS11; assay: MIC veterinary bacteria (Table 2), serial dilution in agar; assay type: cell-based; conditions: diagnostic sensitivity test agar
[14] = tested on: Corynebacterium xerosis 9755; assay: MIC human bacteria (Table 1), serial dilution in nutrient agar; assay type: cell-based; conditions: nutrient agar with 5% chocolated horse blood
Staph aureus Oxford [15] = assay: as above; assay type: cell-based; conditions: Staphylococcus aureus, nutrient agar with 5% chocolated horse blood

**Q.** Which MIC (Bacillus subtilis 6633) does the source give for `C/C(=C\C(=O)OCCCS(=O)(=O)N(C)C)CC1OCC(CC2OC2C(C)C(C)O)C(O)C1O` (stereo not drawn) [Example 4, 3-N,N-Dimethylsulphamoylpropyl monate A] here?
**A.** 2.5 µg/mL (≈ 5.06 µM)

**Q.** And the MIC (S. dublin S7)?
**A.** > 80 µg/mL

**Q.** And the MIC (K. aerogenes A)?
**A.** > 100 µg/mL

**Q.** And the MIC (Staph aureus W2827)?
**A.** 10 µg/mL (≈ 20.3 µM)

**Q.** And the MIC [1]?
**A.** > 80 µg/mL

**Q.** And the MIC (Past multocida PA1)?
**A.** 0.625 µg/mL (≈ 1.27 µM)

**Q.** What about the MIC (P. mirabilis 889) of the same compound?
**A.** > 100 µg/mL

**Q.** What about the MIC (Strep dysgalaciae SPD1) of the same compound?
**A.** 2.5 µg/mL (≈ 5.06 µM)

**Q.** What about the MIC (E. coli ESS) of the same compound?
**A.** 2.5 µg/mL (≈ 5.06 µM)

**Q.** What about the MIC [2] of the same compound?
**A.** 2.5 µg/mL (≈ 5.06 µM)

**Q.** And the MIC (Strep uberis SPU1)?
**A.** 2.5 µg/mL (≈ 5.06 µM)

**Q.** And the MIC (Strep faecalis I)?
**A.** > 100 µg/mL

**Q.** And the MIC (Strep agalactiae SPA1)?
**A.** 2.5 µg/mL (≈ 5.06 µM)

**Q.** What about the MIC (Past multocida PA2) of the same compound?
**A.** 0.312 µg/mL (≈ 0.632 µM)

**Q.** What about the MIC (Strep pneumoniae CN33) of the same compound?
**A.** 1 µg/mL (≈ 2.03 µM)

**Q.** And the MIC (Strep pyogenes B 2788)?
**A.** 2.5 µg/mL (≈ 5.06 µM)

**Q.** What about the MIC (Strep pyogenes C 2761) of the same compound?
**A.** 5 µg/mL (≈ 10.1 µM)

**Q.** And the MIC [3]?
**A.** 0.1 µg/mL (≈ 0.203 µM)

**Q.** What about the MIC (Bord bronchiseptica B08) of the same compound?
**A.** 80 µg/mL (≈ 162 µM)

**Q.** What about the MIC (B. subtilis ATCC 6633) of the same compound?
**A.** No Growth

**Q.** What about the MIC [4] of the same compound?
**A.** > 80 µg/mL

**Q.** What about the MIC (M. suipneumoniae JF435) of the same compound?
**A.** 1000 µg/mL (≈ 2030 µM)

**Q.** And the MIC (S. typhimurium S18)?
**A.** > 80 µg/mL

**Q.** What about the MIC (M. suipneumoniae Str. 11) of the same compound?
**A.** 500 µg/mL (≈ 1010 µM)

**Q.** And the MIC (Sarcina lutea 8340)?
**A.** No Growth

**Q.** And the MIC (Staph aureus Russell)?
**A.** 10 µg/mL (≈ 20.3 µM)

**Q.** And the MIC (E. coli E1)?
**A.** > 80 µg/mL

**Q.** And the MIC (E. coli NCTC 10418 [5])?
**A.** > 80 µg/mL

**Q.** What about the fraction unbound [6] of the same compound?
**A.** 0.053

**Q.** What about the MIC (Strep pyogenes A 64/848) of the same compound?
**A.** 2.5 µg/mL (≈ 5.06 µM)

**Q.** And the MIC [7]?
**A.** 5 µg/mL (≈ 10.1 µM)

**Q.** And the MIC [8]?
**A.** 0.1 µg/mL (≈ 0.203 µM)

**Q.** And the MIC (E. coli NCTC 10418 [9])?
**A.** > 100 µg/mL

**Q.** What about the MIC (Ps. aeruginosa 10662) of the same compound?
**A.** > 100 µg/mL

**Q.** What about the MIC (Bord bronchiseptica B09) of the same compound?
**A.** 20 µg/mL (≈ 40.5 µM)

**Q.** And the MIC (Staph aureus Oxford [10])?
**A.** 2.5 µg/mL (≈ 5.06 µM)

**Q.** And the MIC [11]?
**A.** 1 µg/mL (≈ 2.03 µM)

**Q.** What about the MIC (M. suipneumoniae MS16) of the same compound?
**A.** 500 µg/mL (≈ 1010 µM)

**Q.** And the MIC [12]?
**A.** 0.5 µg/mL (≈ 1.01 µM)

**Q.** And the MIC [13]?
**A.** 40 µg/mL (≈ 81 µM)

**Q.** And the MIC [14]?
**A.** No Growth

**Q.** What about the MIC (Staph aureus Oxford [15]) of the same compound?
**A.** 10 µg/mL (≈ 20.3 µM)
